{"source": "patent US20080009546A1", "about": "(Chevron U.S.A. Inc., priority 2005, published 2008)", "key": {"C57/BL6 male mice [1]": {"test_system": "C57/BL6 male mice", "assay": "Pentylenetetrazol (PTZ)-induced seizure/death model", "assay_type": "in vivo, mouse", "conditions": "for # mice with L3 seizure / # mice with L4 seizure / # of deaths within 30 min: 6 mice; for # of deaths within 30 min / PTZ-induced death: PTZ 100 mg/kg; for Time to death: mice that died within 30 min; for PTZ-induced death: 30 min observation", "experimental": "Although the protection against death is the key endpoint, other effects of the compounds on PTZ-induced seizures were also assessed using multiple parameters. For the mice that did die within the 30 minute observation window, the time of death was also compared. […] The seizure occurrence rate, onset time and number of level 3 (L3) seizure (repetitive seizures but the animal can still stand) and level 4 (L4) seizure (repetitive seizures and the animal loses righting) are also analyzed. The MDT compound (30 mg/kg) treated groups show a certain degree of improvement compared to control. No data from MK801 or memantine were included because the seizures occurring under these treatments are totally different from the control or MDT injected groups due to side effects (“high jumping”)."}, "C57/BL6 male mice [2]": {"test_system": "C57/BL6 male mice", "conditions": "for # of deaths / # of extensions: 6 mice"}, "C57/BL6 male mice [3]": {"test_system": "C57/BL6 male mice", "assay": "Rotarod test (balance and coordination, side effects)", "experimental": "The side effects of the compounds was primarily evaluated using the rotarod test, which mainly assesses the balancing and coordination of mice. The comparisons were made on fall time of the mice between the first measure (pre-treatment) and second measure taken 20 min after the drug/vehicle injection in the same group (paired t-test). […] Comparisons of the rotatod fall times after drug/vehicle dosing were made between drug treatment and control groups (unpaired t-test)."}, "NMDA receptor": {"test_system": "NMDA receptor", "assay": "Whole-cell voltage-clamp recordings of NMDA evoked currents in hypocretin neurons (hypothalamic slices)", "assay_type": "cell-based, mouse", "conditions": "for inhibition of the peak amplitude of NMDA evoked currents: bath application, -60 mV, mean±SEM"}, "[4]": {"test_system": "primary neurons from rat cerebral cortex", "assay": "NMDA-induced LDH release assay in primary cortical neurons (neuroprotection)", "assay_type": "cell-based", "conditions": "Rattus norvegicus, Primary neuron; two experiments; 300 uM NMDA + 50 μM glycine 15 minutes, LDH after 24 hours; read-out: average EC50 (±SD), NMDA-induced LDH release", "experimental": "The neuroprotective properties of drugs have been studied in vitro, using neurons cultured from cortex, cerebellum or retina. […] Neurotoxicity is determined in this assay by measuring lactate dehydrogenase (LDH), a method which is simple, accurate and reproducible. We conducted pilot studies to test if poly-lysine-coated plates would be suitable as a matrix upon which to plate fetal neurons, compared to astrocyte-coated plates. We also compared the use of growth medium to neurobasal medium supplemented with B27 in the pilot experiments. The concentrations of NMDA (300-500 μM), glycine (10-50 μM), and memantine (10-100 μM) were varied, and optimum concentrations and times determined from these pilot studies were then chosen for the main study. The assay is described below.\nFetal rat neocortical cells were cultured on a mouse astroglial feeder layer. To obtain mouse astroglial cells for the feeder layer, cortices were harvested from 1-day old Swiss Webster mice (Charles River, Hollister, Calif.) according to the procedure described by Rose et al (1993). After dissecting cortices in ice-cold dissecting medium, they were minced and incubated in 0.09% trypsin in media stock for 1 hr, followed by resuspension in growth medium containing 10% equine serum and 10% fetal bovine serum. A single-cell suspension was obtained by triturating through fire-bored glass pipettes, and the resulting cell suspension was plated at a density of 0.5-0.75 hemispheres/24-well plate/9.6 ml, with 0.4 ml/well. Plates were incubated in a humidified incubator at 37° C., 5% CO2. Astroglial cells become confluent in about 2-3 weeks, at which time these cultures are ready to be used as feeder layers upon which neuronal cultures can be plated. Neuronal cells were obtained from gestational Sprague-Dawley rats E16-E18, using a similar dissection procedure. Rat embryos were dissected to obtain cortical tissue, which was plated as a single-cell suspension at a density of 1.4 hemispheres/24-well plate/9.6 ml, with 0.4 ml/well. These cells were plated on the existing astroglial feeder layer, and were incubated at 37° C., 5% CO2. After 5 days in culture, cytosine arabinoside (10 μM) was added to the wells to inhibit glial cell proliferation, and after 24 hours, the medium was replaced with fresh growth medium. Cells were fed with fresh growth medium every 2 days, until the experiments were performed. For coating plates with poly-lysine, we used poly-d-lysine hydrobromide (Sigma Cat # P7280) at a concentration of 0.1 mg/ml to coat each well using a minimum volume of 0.2 ml/well. After coating for 5 minutes, the solution was aspirated and wells were rinsed thoroughly with sterile tissue culture grade water. After drying for 2 hours, plates were ready for use. Neuronal cultures were plated onto poly-lysine-coated plates at the same density as above. For the pilot study, some of the cultures were fed with 1:1 ratio of growth medium: neurobasal medium (GIBCO)+B-27 supplement (2%), while the rest of the cultures were fed with growth medium alone (Losi et al., 2006). For the main study, we used astroglial feeder layers to plate the neuronal cultures, and used a mix (1:1) of growth medium with neurobasal medium+B-27 supplement for feeding the cultures.\nAfter 11-14 days in culture, neuronal cells were confluent and experiments were performed. Cells were washed twice using sterile Locke's buffer (154 mM NaCl, 5.6 mM KCl, 2.3 mM CaCl2, 3.6 mM NaHCO3, 5.5 mM D-glucose, 5 mM HEPES, pH 7.4), and then exposed to the various treatment compounds. […] After 15 minutes, cultures were washed twice and incubated overnight in media stock. After 24 hours, supernatants and lysates were collected to measure LDH activity. LDH activity was measured by the reduction of NAD, which was utilized in the stoichiometric conversion of a tetrazolium dye using a kit (Sigma TOX-7). Supernatants were removed from the wells and centrifuged before LDH measurements. The adherent cells were lysed to obtain total LDH. […]"}}, "note": "Where two headings read alike, the source gives them in different places.", "data": [{"smiles": "CC12CC3CC4C1CC1(N)CC2C(C3)C4(C)C1", "note": "[MDT-23, 4-amino-1,6-dimethyl-diamantane]", "values": [{"measurement": "# L3 per mouse", "setting": "C57/BL6 male mice [1]; 10 mg/kg i.p.", "value": "4.67 ± 1.65"}, {"measurement": "# L4 per mouse", "setting": "C57/BL6 male mice [1]; 10 mg/kg i.p.", "value": "1.67 ± 0.49"}, {"measurement": "L3 onset time", "setting": "C57/BL6 male mice [1]; 10 mg/kg i.p.", "value": "3.00 ± 0.20", "unit": "min"}, {"measurement": "L3 seizure rate", "setting": "C57/BL6 male mice [1]; 10 mg/kg i.p.", "value": 0.50}, {"measurement": "L4 onset time", "setting": "C57/BL6 male mice [1]; 10 mg/kg i.p.", "value": "13.80 ± 4.40", "unit": "min"}, {"measurement": "L4 seizure rate", "setting": "C57/BL6 male mice [1]; 10 mg/kg i.p.", "value": 1.00}, {"measurement": "Mortality rate", "setting": "C57/BL6 male mice [1]; 10 mg/kg i.p.", "value": 0.50}, {"measurement": "# mice with L3 seizure", "setting": "C57/BL6 male mice [1]; 10 mg/kg i.p.", "value": 3}, {"measurement": "# mice with L4 seizure", "setting": "C57/BL6 male mice [1]; 10 mg/kg i.p.", "value": 6}, {"measurement": "# of deaths within 30 min", "setting": "C57/BL6 male mice [1]; 10 mg/kg i.p.", "value": 3}, {"measurement": "Time to death", "setting": "C57/BL6 male mice [1]; 10 mg/kg i.p.", "value": "14.00 ± 6.60", "unit": "min"}, {"measurement": "# L3 per mouse", "setting": "C57/BL6 male mice [1]; 30 mg/kg i.p.", "value": "3.83 ± 2.44"}, {"measurement": "# L4 per mouse", "setting": "C57/BL6 male mice [1]; 30 mg/kg i.p.", "value": "1.00 ± 0.0"}, {"measurement": "L3 onset time", "setting": "C57/BL6 male mice [1]; 30 mg/kg i.p.", "value": "5.00 ± 1.90", "unit": "min"}, {"measurement": "L3 seizure rate", "setting": "C57/BL6 male mice [1]; 30 mg/kg i.p.", "value": 1.00}, {"measurement": "L4 onset time", "setting": "C57/BL6 male mice [1]; 30 mg/kg i.p.", "value": "19.80 ± 4.20", "unit": "min"}, {"measurement": "L4 seizure rate", "setting": "C57/BL6 male mice [1]; 30 mg/kg i.p.", "value": 1.00}, {"measurement": "Mortality rate", "setting": "C57/BL6 male mice [1]; 30 mg/kg i.p.", "value": 1.00}, {"measurement": "average time of death", "setting": "C57/BL6 male mice [1]; 30 mg/kg i.p., mice that died within 30 minute window", "value": "22 ± 2.9", "unit": "min"}, {"measurement": "# mice with L3 seizure", "setting": "C57/BL6 male mice [1]; 30 mg/kg i.p.", "value": 6}, {"measurement": "# mice with L4 seizure", "setting": "C57/BL6 male mice [1]; 30 mg/kg i.p.", "value": 6}, {"measurement": "# of deaths within 30 min", "setting": "C57/BL6 male mice [1]; 30 mg/kg i.p.", "value": 6}, {"measurement": "Time to death", "setting": "C57/BL6 male mice [1]; 30 mg/kg i.p.", "value": "22.00 ± 2.90", "unit": "min"}, {"measurement": "PTZ-induced death", "setting": "C57/BL6 male mice [1]; 10 and 30 mg/kg i.p.", "value": "a certain reduction in PTZ-induced death"}, {"measurement": "PTZ-induced death", "setting": "C57/BL6 male mice [1]; high dose 30 mg/kg i.p.", "value": "died within 30 minutes"}, {"measurement": "Extension rate", "setting": "C57/BL6 male mice [2]; 10 mg/kg i.p.", "value": 1.00}, {"measurement": "Mortality rate", "setting": "C57/BL6 male mice [2]; 10 mg/kg i.p.", "value": 0.67}, {"measurement": "# of deaths", "setting": "C57/BL6 male mice [2]; 10 mg/kg i.p.", "value": 4}, {"measurement": "# of extensions", "setting": "C57/BL6 male mice [2]; 10 mg/kg i.p.", "value": 6}, {"measurement": "Extension rate", "setting": "C57/BL6 male mice [2]; 30 mg/kg i.p.", "value": 1.00}, {"measurement": "Mortality rate", "setting": "C57/BL6 male mice [2]; 30 mg/kg i.p.", "value": 0.17}, {"measurement": "# of deaths", "setting": "C57/BL6 male mice [2]; 30 mg/kg i.p.", "value": 1}, {"measurement": "# of extensions", "setting": "C57/BL6 male mice [2]; 30 mg/kg i.p.", "value": 6}, {"measurement": "MES-induced death", "setting": "C57/BL6 male mice [2]; 10 and 30 mg/kg i.p., mice", "value": "dose dependent reduction in MES-induced death"}, {"measurement": "Fall Time", "setting": "C57/BL6 male mice [3]; after, 20 min after 10 mg/kg i.p.", "value": "42.98 ± 2.82", "unit": "min"}, {"measurement": "Fall Time", "setting": "C57/BL6 male mice [3]; after, 20 min after 30 mg/kg i.p.", "value": "31.37 ± 3.83", "unit": "min"}, {"measurement": "Fall Time", "setting": "C57/BL6 male mice [3]; before (pre-treatment), 10 mg/kg group", "value": "28.63 ± 3.10", "unit": "min"}, {"measurement": "Fall Time", "setting": "C57/BL6 male mice [3]; before (pre-treatment), 30 mg/kg group", "value": "39.77 ± 6.14", "unit": "min"}, {"measurement": "rotarod fall time, pre-treatment vs 20 min after injection", "setting": "C57/BL6 male mice [3]; high dose 30 mg/kg i.p., paired t-test", "value": "loss of performance"}, {"measurement": "rotarod performance after dosing vs. control", "setting": "C57/BL6 male mice [3]; high dose 30 mg/kg i.p., unpaired t-test", "value": "statistically significant decreases in rotarod performance"}, {"measurement": "inhibition of the peak amplitude of NMDA evoked currents", "setting": "NMDA receptor; 10 μM", "value": "11.6±4.3", "unit": "%"}, {"measurement": "inhibition of the peak amplitude of NMDA evoked currents", "setting": "NMDA receptor; 100 μM", "value": "22.9±9.3", "unit": "%"}, {"measurement": "reversibility of inhibition of NMDA evoked currents upon washout", "setting": "NMDA receptor; washout of the compound", "value": "not reversible"}, {"measurement": "EC50", "setting": "[4]", "value": "11.1 ± 9.3", "unit": "µM"}]}]}
